# Assay results: patent publication US11045480B2, “Anti-huLRRC15 antibody drug conjugates and methods for their use” (AbbVie Inc., priority 2015, dated 2021)
# Key:
# Assay type in all cases: in vivo, mouse
# [1] = tested on: EBC-1 tumors; assay: Ex vivo analysis (flow cytometry, microscopy, IHC) of treated EBC-1 tumors
# Experimental: For the experiments, 5 million EBC-1 cells grown in vitro were implanted per mouse into the right flank of SCID-beige mice. Tumors were size-matched at ˜300 mm^3 and treated on day 0 and day 4 with 6 mg/kg intraperitoneally for each biologic drug shown in FIG. 15A. Tumors were harvested from the mice in each group 11 days post randomization and start of treatment. Tumors were dissociated into single cell suspensions using Miltenyi Biotec gentleMACS Dissociator according to the manufacturer's guidelines for the dissociation of tough tumors. Dissociated tumor cells were passed through a 70 μm filter, counted, and immediately used for flow cytometry. Single-cell suspensions were resuspended in PBS with 10% FBS and 10 μg/mL FcR block (anti-mouse CD16/CD32, clone 93, eBioscience, Cat. #16-0161.) The following directly conjugated antibodies were used for flow cytometry: human IgG1 κ isotype control (AB095) AF647, anti-huLRRC15 (hu208.4.1a.1a) AF647, anti-FAP (huFAP MAB5) AF647, mouse anti-human CD326 (EPCAM) PE (clone 1B7, eBioscience, Cat. #12-9326), anti-mouse CD11b PE (clone M1/70, eBioscience, Cat. #12-0112), anti mouse CD11c PE (clone N418, eBioscience, Cat. #12-0114), and anti-mouse F4/80 PE (clone BM9, eBioscience, Cat. #12-4801). Ex vivo EBC1 tumor cell suspensions were incubated with fluor-conjugated antibodies for 20 minutes on ice and washed twice using PBS with 1% FBS. Flow cytometry data were collected using a Becton Dickinson FacsCalibur, and data were analyzed using FlowJo™ analysis software (TreeStar). The ex vivo flow cytometry data (FIGS. 15B-15E) are shown as a percentage of cells gated positive for each antigen relative to total live cells gated via FSC/SCC. It should be noted that percentages reported are relative values to the total ex vivo EBC1 tumor and that a reduction in one cell population (e.g., EPCAM positive cancer cells) would result in an inverse increase in remaining cell populations when this analysis method is used.
# Dissociated single-cell suspensions of the ex vivo EBC1 tumors shown in FIG. 15A were seeded at 120,000 live cells into tissue culture microscopy chamber slides. Cells were allowed to sit and incubate for 48 hours, and then fixed in 2% paraformaldehyde for 15 min at 37° C. The cells were washed with PBS and permeabilized using 0.3% Triton-X in PBS at 37° C. for 30 min. Cells were washed with PBS and blocked in 5% BSA for 30 min at 37° C. Cells were incubated with anti-α-SMA (clone 1A4 DAKO, Cat. #36962) and then detected with AlexaFluor AF594 (Life Technologies, Cat. #A21203) secondary antibody (2 μg/mL) for 30 min at 37° C. Subsequently, cells were stained using anti-human EpCAM-AF488 (Cell Signaling Technology, Cat. #5198) and washed 3× in PBS. Finally the slides were removed from the chambers and mounted with a coverslip using ProLong Diamond Anti-Fade with DAPI (Life Technologies, Cat. #36962). Image acquisition was performed using Zeiss Axiovision Software on a Zeiss Axiovert 200M inverted fluorescent microscope. Statistical differences between groups were determined using unpaired T tests in GraphPad Prism™. […] The percentage of pHH3 positive cells decreased with additional dosing and longer time (FIG. 15H) correlating with cancer cell death and tumor shrinkage (FIG. 15A).
# [2] = tested on: PANC1 (pancreatic) xenograft; assay: PANC1 xenograft tumor growth
# Experimental: In FIG. 20E, PANC1 pancreatic cancer cells (10 million) were implanted subcutaneously into SCID mice, and mice were randomized when the tumors reached ˜125 mm^3 and dosed with biologics at 12 mg/kg intraperitoneally on a Q4D×6 (one dose given every 4 days for a total of 6 doses), while gemcitabine was dosed intraperitoneally at 100 mg/kg Q3D×4) (one dose given every three days for 4 doses total).
# [3] = tested on: HN5 (head and neck) xenograft; assay: HN5 xenograft tumor growth; details: HN5, NSG mice; ADC 4.5 mg/kg IP Q4D×6; erlotinib 150 mg/kg orally daily ×10; cetuximab 3 mg/kg IP Q7D×3 (FIG. 20B)
# [4] = tested on: NW231 breast cancer xenograft; assay: NW231 xenograft tumor growth; details: NW231, SCID mice; biologics 12 mg/kg IP Q4D×6; doxorubicin 1 mg/kg IV days 0, 4, 8, 13, 18 (FIG. 20D)
# Experimental: In FIG. 20D, NW231 breast cancer cells (10 million) were implanted subcutaneously into SCID mice, and mice were randomized when the tumors reached ˜150 mm^3 and dosed with biologics at 12 mg/kg intraperitoneally on a Q4D×6 (one dose given every 4 days for a total of 6 doses), while doxorubicin was dosed intravenously at 1 mg/kg on days 0, 4, 8, 13 and 18.
# [5] = tested on: SCC-15 head and neck cancer xenograft; assay: SCC-15 xenograft tumor growth; details: for TGD, single agent / TGImax, single agent: SCC-15, SCID mice
# Experimental: Radiation is a commonly used cytotoxic therapy in oncology. […] SCC-15 head and neck cancer cells (1 million) were implanted subcutaneously into SCID mice, and mice were randomized when the tumors reached ˜200 mm^3 and dosed with biologics at 12 mg/kg intraperitoneally on a Q4D×6 (one dose given every 4 days for a total of 6 doses), while the radiation was directed at the tumor with a single radiation dose of 15 Gy on day 0.
# SCC-15 head and neck cancer cells (1 million) were implanted subcutaneously into SCID mice, and mice were randomized when the tumors reached ˜200 mm^3 and dosed with biologics at 12 mg/kg intraperitoneally on a Q7D×6 (one dose given every 7 days for a total of 6 doses), while carboplatin was dosed intraperitoneally […] at 50 mg/kg Q4D×4 (one dose given every 4 days for a total of 4 doses).
# [6] = tested on: SCC-15 head and neck cancer xenograft; assay: SCC-15 xenograft tumor growth
# [7] = EBC-1 tumors, 6 mg/kg IP day 0 and 4, harvested day 11 (FIG. 15F)
# [8] = biologics 12 mg/kg IP Q4D×6 (FIG. 21D)
# [9] = biologics 12 mg/kg IP Q7D×6, carboplatin 50 mg/kg IP Q4D×4 (FIG. 21E)
# [10] = SCC-15, ADC 12 mg/kg IP Q4D×6 plus single radiation dose of 15 Gy on day 0 (FIG. 21D)
# [11] = SCC-15, ADC 12 mg/kg IP Q7D×6 plus carboplatin 50 mg/kg IP Q4D×4 (FIG. 21E)
# [12] = SCC-15, SCID mice, ADCs 12 mg/kg IP Q7D×6, cetuximab 3 mg/kg IP Q7D×3 (FIG. 22B)
# [13] = SCC-15, ADC 12 mg/kg IP Q7D×6 plus cetuximab 3 mg/kg IP Q7D×3 (FIG. 22B)
substance,measurement,setting,value
"huM25-vcMMAE-E2: huM25 conjugated with maleimidocaproyl val-cit PABA MMAE, preparation enriched in DAR2 by HIC",cancer cells in ex vivo tumor (microscopy count),[1]; [7],significant decrease
same,fibroblast population in ex vivo tumor,[1]; [7],continued to persist
same,"phosphohistone H3 (pHH3) staining, mitotic figures","[1]; EBC-1 tumors, 6 mg/kg, after 72 hours (FIG. 15G)",higher number of mitotic figures
same,staining for CD45 and F4/80,"[1]; EBC-1 tumors, day 11 post-treatment, 6 mg/kg, compared with isotype ADC (FIG. 15I)",enhanced staining
same,immune infiltrate (CD11c or F4/80 positive cells),[1]; ex vivo flow cytometry of EBC-1 tumors post treatment (FIGS. 15D-15E),increase in immune infiltrate
same,TGImax,"[2]; PANC1 (3+ huLRRC15 stromal positive, cancer negative) tumor model (FIG. 17B)",94.4%
same,TGImax,"[2]; PANC1, SCID mice, biologics 12 mg/kg IP Q4D×6, gemcitabine 100 mg/kg IP Q3D×4 (FIG. 20E)",94%
same,TGD,[3],194%
same,TGImax,[3],96%
same,TGImax,[4],89%
same,"TGD, single agent",[5]; [8],44%
same,"TGImax, single agent",[5]; [8],58%
same,"TGD, single agent",[5]; [9],44%
same,"TGImax, single agent",[5]; [9],58%
same,"TGD, used adjunctively with radiation",[5]; [10],219%
same,"TGImax, used adjunctively with radiation",[5]; [10],90%
same,"TGD, used adjunctively with carboplatin",[5]; [11],83%
same,"TGImax, used adjunctively with carboplatin",[5]; [11],86%
same,"TGD, single agent",[6]; [12],44%
same,"TGImax, single agent",[6]; [12],58%
same,"TGD, used adjunctively with cetuximab",[6]; [13],125%
same,"TGImax, used adjunctively with cetuximab",[6]; [13],87%
